≈ marks a conversion by molar mass, not a printed value.
Columns and labels:
[1] = tested on: Cryptococcus neoformans TIMM 0354; assay: Antifungal activity: growth inhibition of Cryptococcus neoformans TIMM 0354 (serial two-fold dilution); assay type: cell-based; conditions: YNBG liquid medium, 2 days at 30° C.; for MIC: Cryptococcus neoformans, TIMM0354, 48 h, read-out: Antifungal activity MIC (minimum growth inhibitory concentration); for minimum growth sub-inhibitory concentration (minimum concentration causing partial growth inhibition; value in parentheses): printed in parentheses
Experimental: The test microorganism used was Cryptococcus neoformans TIMM 0354. YNBG liquid medium (Difco yeast nitrogen base 0.67%, glucose 1%) was used and the minimum growth inhibitory concentration […] was determined after culturing for 2 days at 30° C. in the presence of the serial two-fold dilution of the compound. The minimum growth sub-inhibitory concentration (μg/ml) was determined as the minimum concentration causing partial growth inhibition of the microorganism and also shown in Table 2 in parentheses.

[2] = tested on: mixed lymphocytes reaction (MLR), T cells from spleen cells of C57BL/6 mice and BALB/c mice; assay: Immunosuppressive activity: inhibition of mixed lymphocytes reaction (MLR); assay type: cell-based, mice (C57BL/6; conditions: Lymphocyte; mouse MLR, 50% inhibition
Source text: We measured inhibitory activity of mixed lymphocytes reaction (MLR) and determined the 50% inhibitory activity. Lymphocytes used are T cells from spleen cells of C57BL/6 mice and BALB/c mice.

SMILES	MIC [1] [µg/mL]	minimum growth sub-inhibitory concentration (minimum concentration causing partial growth inhibition; value in parentheses) [1] [µg/mL]	IC50 [2] [µg/mL]
CCCCCCCCCCCCCC=CC(O)C(N)COC(=O)C(NC(=O)C(O)CO)C(C)C (centres unmarked) [Compound (2)]	25 (≈ 51.4 µM)	12.5	1.86 (≈ 3.82 µM)
CCCCCCCCCCCCCCCC(O)C(N)COC(=O)[C@@H](NC(=O)C(O)CO)C(C)C (some centres unmarked) [Compound (1)]	50 (≈ 102 µM)	25	3.25 (≈ 6.65 µM)
CCCCCCCCCCCCCC=CC(O)C(N)COC(=O)C(O)CO (centres unmarked) [Compound (5)]	50 (≈ 129 µM)	25	5 (≈ 12.9 µM)
CCCCCCCCCCCCCC=CC(O)C(N)COC(=O)C(N)C(C)C (centres unmarked) [Compound (6)]	50 (≈ 125 µM)	25	1.55 (≈ 3.89 µM)
CCCCCCCCCCCCCCCC(O)C(N)C(=O)NC(C)C(=O)NC(C(=O)NC(CO)CO)C(C)C (centres unmarked) [Compound (8)]	–	50	0.44 (≈ 0.787 µM)
